From US6855801B1, “Peptides modulating activities of heparin other glycosaminoglycans or proteoglycans” (Thomas Jefferson University, priority 1999, dated 2005)
Where “and” joins values, the source holds several entries; their conditions need not be identical. Equal values may be shown once. Read-outs that look alike come from different tables or passages of the source. Blank lines part the entries; values can stand above or below the substance they belong to.

How the values were obtained:
HUVEC PGs = test: ACE of HUVEC PGs/GAGs through peptide; assay type: binding, human
Experimental: (§1) Briefly, peptides were dissolved in 1×ACE running buffer, 50 mM sodium 3-(N-morpholino)-2-hydroxypropanesulfonate (MOPSO, Sigma)/125 mM sodium acetate, pH 7.0, and serially diluted in running buffer at 2× concentrations. Peptides were then mixed 1:1 with 2% agarose/1% CHAPS, 3-[(3-cholamidopropyl)dimethylammonio]-1-propanesulfonate, (Boehringer Mannheim, Indianapolis, Ind.), and loaded into wells of a 1% agarose gel. Radiolabeled heparin or HUVEC PGs were then loaded in a slot on the […] side of the gel, and electrophoresed through the peptide-containing wells, towards the cathode. Gels were dried and PG mobility was measured with a Phosphorimager (Molecular Dynamics, Sunnyvale, Calif.) by scanning each protein lane and determining the relative radioactivity content per. 88-μm pixel through the length of the lane. Retardation coefficient (R) measurements, binding isotherm curve fittings, and apparent Kd value determinations were calculated as detailed previously (Lee, M. K., and A. D. Lander, Proc Nat Acad Sci USA, 88:2768-2772, 1991; San Antonio, J. D., et al, Biochem, 32:47464755, 1993).
Binding analysis of peptides to enzymatically or chemically degraded PGs (see below) was carried out by ACE as detailed, except that PG samples included 6 M urea to denature any residual enzymes.
Cell Culture—HUVEC were isolated as detailed elsewhere (Gimbrone, M. A., In Progress in Hematology and Thrombosis. Vol. III. B. S. Collen, editor. W B Saunders, Philadelphia. 1-28, 1976) and were used up to passage seven. Cells were cultured on 0.2% gelatin-coated tissue culture flasks in normal culture media composed of medium 199 (Gibco BRL, Gaithersburg, Md.), 10% fetal bovine serum (FBS, Mediatech Inc.), 80 μg/ml endothelial cell growth supplement isolated from bovine hypothalami as described (Maciag, T., et al., Proc Nat Acad Sci USA, 76 (11):5674-5678, 1979), 50 μg/ml heparin (porcine intestinal mucosa, grade 1A, Sigma) 1% penicillin-streptomycin, and 0.1% fungizone.
Radiolabeling and Isolation of Total HUVEC PGs and GAGs—Exponentially growing, subconfluent HUVEC were labeled with 35μCi/ml ^35S-Na2SO4 (ICN Pharmaceuticals, Costa Mesa, Calif.) in normal culture media minus heparin for 12 h. Culture media and cell layers were harvested separately. After removal of the media, cells were washed with 2.0 ml PBS plus Ca^2+-Mg^2′. Media and rinses were pooled and brought to 6 M urea, 10 mM EDTA, 1 mM phenymethylsulfonyl fluoride (PMSF), 5 mM N-ethylmaleimide (NEM), 50 mM 6-aminocaproic acid, 5 mM benzamidine, and 1 μg/ml pepstatin A. Samples were stirred for 15 min at room temperature, then centrifuged at 10,000 rpm for 30 min to remove insoluble materials.
To the cell layer was added 2.0 ml of extraction solution, 6M urea, 100 mM NaCl, 0.2% Triton X-100, 50 mM Tris-HCl, pH 7.0, and protease inhibitors as described above. Cells were scraped off the dishes, and the extracts were pooled and stirred for 5 min at room temperature, and then centrifuged as described above.
Samples were concentrated on DEAE columns (DEAE Bio-Gel A Agarose, Bio-Rad Laboratories) equilibrated with low salt buffer, 0.1 M NaCl, 6 M urea, and 50 mM Tris-HCl, pH 7.0. Columns were rinsed with 10 ml of low salt buffer; flow through was discarded. Bound PGs/GAGs were eluted with 3 ml of high salt buffer, 1.5 M NaCl, 6 M urea, and 50 mM Tris-HCl, pH 7.0. Eluted samples were dialyzed against distilled water, lyophilized and stored at −20° C. until binding analysis.
Enzymatic Digestions of PGs—The contributions of PG GAG chain components to peptide binding affinities were assessed by selective enzymatic degradation of GAG chains prior to ACE analysis. ^35S-Na2SO4 labeled HUVEC PGs were digested with chondroitinase ABC, or heparatinase I (Seikagaku America, Ijamsville, Md.). […]

unfractionated heparin [1] = test: Reversal of anti-Factor Xa activity in vitro (Stachrom Heparin chromogenic assay), unfractionated heparin; assay type: biochemical, human; details: for Percent Reversal of anti-Factor Xa Activity, Heparin (unfractionated): 0.5 U/ml anti-Factor Xa activity
Experimental: (§2) Solutions of Lovenox, Orgaran, or unfractionated heparin (Sigma) were prepared in 0.32% sodium citrate or in normal human plasma to contain 0.5 U/ml anti-FXa activity. Calibrations were made against the standards provided by the Stachrom Heparin (Diagnostica Stago) assay kit. The heparin/ATIII complex was allowed to form at 37° C. for 2 minutes, peptide was added, the mixture was incubated for an additional 1-5 minutes, and then Factor Xa was added, and finally the color reagent, for one minute, and the absorbance was read at 405 nm. The increase in absorbance from the heparinized control to the test sample was divided by the difference in A405 between the heparinized control and the control without heparin to obtain the % reversal.

Lovenox = test: Reversal of anti-Factor Xa activity in vitro (Stachrom Heparin chromogenic assay), Lovenox; assay type: biochemical, human; details: for Percent Reversal of anti-Factor Xa Activity, Lovenox: 0.5 U/ml anti-Factor Xa activity
Experimental: as §2

Orgaran = test: Reversal of anti-Factor Xa activity in vitro (Stachrom Heparin chromogenic assay), Orgaran; assay type: biochemical, human; details: for Percent Reversal of anti-Factor Xa Activity, Orgaran: 0.5 U/ml anti-Factor Xa activity
Experimental: as §2

[2] = Affinity coelectrophoresis (ACE) of radiolabeled heparin through peptides; assay type: binding, pig; details: for heparin-binding affinity in words: ACE, low Mr heparin
Excerpt: Preparation of Radiolabeled Heparin—Whole heparin from pig intestinal mucosa (Sigma) was tyramine end-labeled and radiolabeled with Na^125I (Amersham, Pharmacia Biotech, Inc., Piscataway, N.J.) to an average specific activity ≅1.0×10^7 CPM/μg as described^59. Radiolabeled heparin was fractionated on Sephadex G-100 (Bio-Rad Laboratories, Hercules, Calif.) and the final ≅12% of material to elute was retained as the low Mr material of ≦6,000 (Jordan, R., D. Beeler, and R. Rosenberg, J Biol Chem, 254:2902-2913, 1979; Laurent, T. C., et al., Biochem J, 175:691-701, 1978).
as §1
Some peptides were also analyzed by ACE for heparin-binding under reducing conditions. Thus, after serial peptide dilution, β-mercaptoethanol (β-ME) was added at 5% to each peptide sample, and these were mixed 1:1 with 2% agarose/1% CHAPS/5% β-ME, and added to the ACE gel sample wells as usual.

unfractionated heparin [3] = test: Reversal of anti-thrombin effects of unfractionated heparin in vitro (thrombin clotting time in plasma); assay type: biochemical, human; details: heparin 0.5 U/ml; thrombin standardized to clotting time 20-22 seconds
Experimental: Plasma was obtained from normal donors. Thrombin concentration (human alpha thrombin, Enzyme Research Laboratories, South Bend, Ind.) was standardized to produce a clotting time of 20-22 seconds. Heparin was added at 0.5 IU anti-thrombin activity/ml. The clotting time for heparin alone was approximately 3 minutes. To test the effects of the peptides in this system, one minute after addition of heparin to the plasma, the peptides were added in concentrations ranging from 1-200 μg/ml. After one minute, thrombin was added and the clotting time determined. The effects of the peptides were concentration dependent. The clotting time was restored to normal values in all samples at the dosages shown below in Table III. The ability of the peptides to neutralize heparin inhibition of thrombin clotting time was consistent with the binding affinities shown in Table I, and with the effectiveness against low molecular weight heparin anti-Factor Xa activity in Table II.

Kd (HUVEC PGs; 35S-labeled secreted/total EC PGs, read-out: Kd for total (secreted) HUVEC PGs): ~300 nM | Kd for HUVEC PGs devoid of CS GAGs via chondroitinase ABC (ABC) digestion (HUVEC PGs; chondroitinase ABC digested PGs): comparable affinity | Kd (HUVEC PGs; chondroitinase ABC digested PGs, read-out: Kd for HUVEC PGs devoid of CS GAGs via chondroitinase ABC (ABC) digestion): ~300 nM | Kd (HUVEC PGs; free GAG chains of total PGs, read-out: Kd for GAG chains liberated from core protein by borohydride reduction (BH)): ~1200 nM | Kd for HUVEC PGs devoid of HS GAGs via heparatinase I digestion (H) (HUVEC PGs; heparatinase I digested PGs): comparable affinity | Kd (HUVEC PGs; heparatinase I digested PGs, read-out: Kd for HUVEC PGs devoid of HS GAGs via heparatinase I digestion (H)): ~300 nM | Kd for HUVEC PGs devoid of HS GAGs via nitrous acid treatment (NA) (HUVEC PGs; nitrous acid degraded PGs): comparable affinity | Kd (HUVEC PGs; nitrous acid degraded PGs, read-out: Kd for HUVEC PGs devoid of HS GAGs via nitrous acid treatment (NA)): ~300 nM
Substance: (ARKKAAKA)4 (ARKKAAKAARKKAAKAARKKAAKAARKKAAKA; protein fragment) [XBBBXXBX tandem repeat peptide]
reduction in affinity after borohydride release of GAG chains (HUVEC PGs; free GAG chains versus intact PGs): 3 fold and 3-4 fold | Percent Reversal of anti-Factor Xa Activity, Heparin (unfractionated) (unfractionated heparin [1]; peptide 0.6 mg/ml in plasma): 87.5% | Percent Reversal of anti-Factor Xa Activity, Lovenox (Lovenox; peptide 0.6 mg/ml in plasma): 73% | Percent Reversal of anti-Factor Xa Activity, Orgaran (Orgaran; peptide 0.6 mg/ml in plasma): 70.5%

Substance: ARKKAAKA
heparin-binding affinity in words [2]: do not bind heparin with a measurable affinity

Substance: (ARKKPAKA)3 (ARKKPAKAARKKPAKAARKKPAKA; protein fragment) [proline in each tandem repeat in place of an alanine]
Percent Reversal of anti-Factor Xa Activity, Heparin (unfractionated) (unfractionated heparin [1]; peptide 0.12 mg/ml in plasma): 90.0% | Percent Reversal of anti-Factor Xa Activity, Heparin (unfractionated) (unfractionated heparin [1]; peptide 0.4 mg/ml in plasma): 50.0% | Percent Reversal of anti-Factor Xa Activity, Heparin (unfractionated) (unfractionated heparin [1]; peptide 0.6 mg/ml in plasma): 99.0% | Percent Reversal of anti-Factor Xa Activity, Lovenox (Lovenox; peptide 0.12 mg/ml in plasma): 62.0% | Percent Reversal of anti-Factor Xa Activity, Lovenox (Lovenox; peptide 0.4 mg/ml in plasma): 62.5% | Percent Reversal of anti-Factor Xa Activity, Lovenox (Lovenox; peptide 0.6 mg/ml in plasma): 100% | Percent Reversal of anti-Factor Xa Activity, Orgaran (Orgaran; peptide 0.12 mg/ml in plasma): 45.0% | Percent Reversal of anti-Factor Xa Activity, Orgaran (Orgaran; peptide 0.4 mg/ml in plasma): 67.5% | Percent Reversal of anti-Factor Xa Activity, Orgaran (Orgaran; peptide 0.6 mg/ml in plasma): 66.5%

heparin-binding affinity in words [2]: strong
Substance: AKKARAAKKARAAKKARAAKKARAAKKARA [(AKKARA)5, XBBXBX tandem repeat peptide]

Substance: (ARRRAARA)3 [XBBBXXBX tandem repeat peptide]
Percent Reversal of anti-Factor Xa Activity, Heparin (unfractionated) (unfractionated heparin [1]; peptide 0.6 mg/ml in plasma): 57.5% | Percent Reversal of anti-Factor Xa Activity, Lovenox (Lovenox; peptide 0.6 mg/ml in plasma): 67.5% | Percent Reversal of anti-Factor Xa Activity, Orgaran (Orgaran; peptide 0.6 mg/ml in plasma): 67.0%

heparin-binding under reducing conditions in words ([2]; ACE with β-ME): negligible heparin-binding
Substance: YPARRARYQWVRCKP
Percent Reversal of anti-Factor Xa Activity, Heparin (unfractionated) (unfractionated heparin [1]; peptide 0.6 mg/ml in plasma): 77.0% | Percent Reversal of anti-Factor Xa Activity, Lovenox (Lovenox; peptide 0.6 mg/ml in plasma): 25.0% | μg peptide/ml heparinized plasma needed to normalize thrombin time (unfractionated heparin [3]): 15 μg peptide/ml heparinized plasma | Percent Reversal of anti-Factor Xa Activity, Orgaran (Orgaran; peptide 0.6 mg/ml in plasma): 16.5%

Substance: YPTQRARYQWVRCNP
Percent Reversal of anti-Factor Xa Activity, Heparin (unfractionated) (unfractionated heparin [1]; peptide 0.6 mg/ml in plasma): 90% | effectiveness against UFH / heparin in vitro, in words (unfractionated heparin [1]; text summary of Table II): highly effective | Percent Reversal of anti-Factor Xa Activity, Lovenox (Lovenox; peptide 0.6 mg/ml in plasma): 0% | effectiveness against Lovenox / low molecular weight heparin in vitro, in words (Lovenox; text summary of Table II): not against Lovenox | μg peptide/ml heparinized plasma needed to normalize thrombin time (unfractionated heparin [3]): 100 μg peptide/ml heparinized plasma | Percent Reversal of anti-Factor Xa Activity, Orgaran (Orgaran; peptide 0.6 mg/ml in plasma): 5% | effectiveness against Orgaran in vitro, in words (Orgaran; text summary of Table II): highly effective
